From US20120094939A1, “ANTI-VIRAL COMPOUNDS, COMPOSITIONS AND METHODS” (priority 2007, published 2012)

Tested on: Huh7/Rep-Feo cells
Assay: Primary HTS cell viability counter-screen (CellTiterGlo)
Format: cell-based, human
Conditions: for C-CompZ, compositeZ score for cell viability assay: Table 2 antiviral hits of DOS set, approximately 10-50 μM, most at 33 μM, 48 hours
Experimental: Primary Screening-HTS. Information about the library of known bioactive compounds that was screened and the general automated HTS protocol is available at http://www.broad.harvard.edu/chembio/index.html (see FIG. 10 for list of primary HTS with known bioactives library). Based on the results of optimization experiments in the 384-well plate format, the general HTS protocol was adapted as follows. Unless otherwise indicated, cells were incubated at all times in a humidified environment with 5% CO2 at 37° C. The assay was initiated by plating 30 μL of medium containing 2000 cells/well into white 384-well opaque-bottom plates (Nunc, Rochester, N.Y.) using an automated plate filler (Bio-Tek uFiller; Winsooki, Vt.) and allowing the cells to adhere for 24 hours. One hundred nL of compound stock solutions in DMSO was transferred from stock plates into the 384-well assay plates using an automated pin-based compound transfer robot (CyBio CyBi-Well vario; Woburn, Mass.). The final compound concentration in each well was estimated to be approximately 10-50 μM, with most compounds at 33 μM. The wells contained 0.33% DMSO by volume. The cells were then incubated for another 48 hours. The luminescent signal from each plate was detected using an automated plate reader (Perkin-Elmer Envision 1; Wellesley, Mass.). This screen was performed in duplicate. For negative controls, entire DMSO-treated control plates were employed, in addition to DMSO-only control wells that were incorporated into each compound assay plate. The cells were assayed for luciferase activity using the Bright-Glo Luciferase assay system (Promega), following the manufacturer's instructions. As a counter-screen, cell viability was assessed using the CellTiterGlo Luminescent cell viability assay (Promega) following the manufacturer's instructions.
Computational Data Analysis-Primary Screening. For each replicate, a mock-treatment distribution based on the total population of mock (DMSO) controls in that replicate was built (FIG. 11). Each compound was independently assigned a sign (ie, “+” or “−”) Z-score. Z-scores are calculated by dividing each background-subtracted, compound-treated well by the global standard deviation. A global standard deviation of the background-subtracted, mock-treated wells is calculated over the entire experiment. This distribution was determined to be consistent with experimental noise observed under cell-based assay conditions. The resulting collection of continuousvalued Z-scores represents the primary data set to be used for further analysis. The composite Z-score was calculated as a vector projection of each Z-score in duplicate onto an imaginary line of perfect reproducibility. Reproducibility is the cosine of the angle between each Z-score and that imaginary line; it is dimensionless and ranges from −1 to +1. […] The primary data were analyzed using the commercial software packages Pipeline Pilot (SciTegic, San Diego, Calif.) and SpotFire (SpotFire, Inc., Somerville, Mass.). The means of the negative, DMSO-only controls were considered the zero point.
Primary Screening—HTS: Unless otherwise indicated, cells were incubated at all times in a humidified environment with 5% CO2 at 37° C. The assay was initiated by plating 30 μl of medium containing 2,000 cells/well into white 384-well opaque-bottom plates (Nunc; Rochester, N.Y.) using an automated plate filler (Bio-Tek μFiller; Winsooki, Vt.) and allowing the cells to adhere for 24 hours. 100 nl of compound stock solutions in DMSO were transferred from stock plates into the 384-well assay plates using an automated pin-based compound transfer robot (CyBio CyBi-Well vario; Woburn, Mass.). The final compound concentration in each well was estimated to be approximately 10-50 μM, with most compounds at 33 μM. The wells contained 0.33% DMSO by volume. The cells were then incubated for another 48 hours. […]

SMILES: CC(=O)OC[C@H]1O[C@H](CCO/N=C2/[C@H]3CCn4c(=O)n(-c5ccccc5)c(=O)n4[C@H]3[C@H](O)[C@@H]3O[C@H]23)C=C[C@@H]1OC(C)=O [BUCMLD-B10A3]
- C-CompZ, compositeZ score for cell viability assay: −1.8907

SMILES: Cc1cc2c(nc1C)CCCN2CC(C)O/N=C1/[C@H]2CCn3c(=O)n(-c4ccccc4)c(=O)n3[C@H]2[C@H](O)[C@@H]2O[C@H]12 (stereo partly drawn) [BUCMLD-B10A5]
- C-CompZ, compositeZ score for cell viability assay: 0.3574

SMILES: Cc1cc(C)c(-c2cc([C@H](C)O/N=C3/[C@H]4CCn5c(=O)n(-c6ccccc6)c(=O)n5[C@H]4[C@H](O)[C@@H]4O[C@H]34)on2)c(C)c1 [BUCMLD-B10A11]
- C-CompZ, compositeZ score for cell viability assay: −1.7178

SMILES: O=C1C2C=C(I)C(CC2OCCCCO)[C@@]12CO2 (stereo partly drawn) [SM_A5B3_2P141]
- C-CompZ, compositeZ score for cell viability assay: 0.6345

SMILES: O=C1C2(CO)C=C(Br)C(CC2c2ccccc2)[C@@]12CO2 (stereo partly drawn) [SM_A6B5_2P100]
- C-CompZ, compositeZ score for cell viability assay: −0.2965

SMILES: COc1cc2c(cc1OC)-c1c/c(=N\c3c(C)cc(C)cc3C)n(C)c(=O)n1CC2 [trequinsin, reference compound]
- cytotoxicity in the primary screen (tested at 33 μM): cytotoxic
